Test [1] relates to mouse anti-RT3 scFv clone 64 (PCR pattern A). Put plainly: competitive inhibition ELISA, scFv binding to RT3-BSA. As to conditions: 100 uM competitor, preincubated 1 hour at room temperature; ELISA signal normalized to no inhibitor (FIG. 8). The method, then: (§1) The clones selected for analysis and their corresponding PCR pattern (see Table 1, Example 4.3) were: 50 (PCR B), 64 (PCR A), 68 (PCR D), 71 (PCR E), 80 (PCR C), 84 (PCR A), 95 (PCR I), 96 (PCR A), and 97 (PCR A). Soluble scFv was purified from 50 ml cultures of each clone using the IMAC protocol described in Example 4.1, except bound antibody was eluted with 50 mM EDTA, 0.5M NaCl. The scFv concentration for each clone was estimated from silver stained SDS polyacrylamide gels by running a portion of the eluted protein on a gel containing appropriate scFv concentration standards. The scFv protein was diluted to 4 ug/ml and then serially diluted 1:2 across 11 wells of RT3-BSA coated ELISA plate. The concentration of scFv giving 50% of the maximum ELISA signal was determined from the titration. This concentration of scFv was used for a subsequent competitive inhibition assay described below.
(§2) A competitive inhibition ELISA assay was performed by incubating scFV (at a concentration as determined by titration above) with 100 uM of each of the following compounds: RT3 hapten (Compound 7, FIG. 1), left hand portion of RT3 hapten (designated RT3A, Compound 8, FIG. 2), right hand portion of RT3 hapten (designated RT3B, Compound 12, FIG. 3), The left and right hand portions of the expected products from the esteriolytic cleavage of substrate (Compound 15, FIG. 4) designated Product A (Mesitylacetic acid, FIG. 4) and Product B (Compound 13, FIG. 4). The scFv was preincubated with the inhibitor compound in tubes at room temperature for 1 hour prior to addition to RT3-BSA coated ELISA wells. The […] readings have been normalized to a value of 1, which represents the ELISA signal seen for the corresponding scFv in the absence of added competitive inhibitor.

The test system of test [2] is mouse anti-RT3 scFv clone 96 (PCR pattern A). The test is described as above. As to conditions: 100 uM competitor, preincubated 1 hour at room temperature; ELISA signal normalized to no inhibitor (FIG. 8). Here is the method:
as §1, §2
On the technique in general: ELISA stands for enzyme-linked immunosorbent assay.

The test system of test [3] is mouse RT3 phage antibody scFv clone 68 (PCR pattern D). The test is described as above. The note with it: 100 uM competitor, preincubated 1 hour at room temperature; ELISA signal normalized to no inhibitor (FIG. 8); clone cross-reacts with BSA. Here is the method:
as §1, §2

Test [4] relates to mouse RT3 phage antibody scFv clone 71 (PCR pattern E). The description is as above. The note with it: 100 uM competitor, preincubated 1 hour at room temperature; ELISA signal normalized to no inhibitor (FIG. 8); clone cross-reacts with BSA. The method, then:
as §1, §2

In test [5] the test system is mouse anti-RT3 scFv clone 50 (PCR pattern B). Described as above. As to conditions: 100 uM competitor, preincubated 1 hour at room temperature; ELISA signal normalized to no inhibitor (FIG. 8). The method, then: as §1, §2
Test [6] concerns mouse anti-RT3 scFv clone 80 (PCR pattern C). The test is described as above. As to conditions: 100 uM competitor, preincubated 1 hour at room temperature; ELISA signal normalized to no inhibitor (FIG. 8). The method, then:
as §1, §2

Test [7] deals with mouse anti-RT3 scFv clone 84 (PCR pattern A). The description is as above. As to conditions: 100 uM competitor, preincubated 1 hour at room temperature; ELISA signal normalized to no inhibitor (FIG. 8). Here is the method: as §1, §2
Test [8] deals with mouse anti-RT3 scFv clone 95 (PCR pattern I). The description is as above. The note with it: 100 uM competitor, preincubated 1 hour at room temperature; ELISA signal normalized to no inhibitor (FIG. 8). The method, then:
as §1, §2

Test [9] deals with mouse anti-RT3 scFv clone 97 (PCR pattern A). Described as above. The note with it: 100 uM competitor, preincubated 1 hour at room temperature; ELISA signal normalized to no inhibitor (FIG. 8). Here is the method:
as §1, §2

Test [10] has as its system catalytic mouse anti-RT3 scFv clone 18. Briefly: catalytic assay (HPLC), hydrolysis of RT3 substrate by scFv. The format is biochemical. The method, then: (§3) To further examine the scFv fragments for catalytic activity, the potentially-catalytic proteins identified in the early screen described above were individually grown and purified. Purification of the scFv was acheived as described in Example 6.1 using either IMAC or affinity chromotagraphy on anti-Myc-Protein A agarose. Assays were performed in the same buffer systems and pH values as in the early screen but the antibodies were tested individually and they were not immobilized but free in solution.
(§4) From these secondary assays, two scFv molecules, designated 18 and 83, catalytic activity was found. Clone 18 appeared to be active at pH 9.0 but not at pH 7.0 while clone 83 appeared to be active at pH 7.0 but not at pH 9.0 or 5.0. […] These two clones were selected as candidates for large scale purifcation of scFv as described below. The results of these assays are presented in Example 6.4.
For clone 18 a typical catalytic assay was set up as follows: 50 μl of scFv was added to 145 μl of RT3 substrate (Compound 15, FIG. 4) and 5 μl of water or for some assays 5 μl of RT3 hapten. A blank consisting of 50 μl of water and […] of RT3 substrate was set up to monitor the background hydrolysis of the RT3 substrate. The reaction was allowed to proceed for 6 hours after which samples were frozen at -20° C. to stop the reaction. Samples were analyzed by HPLC as described in example 5.1. […]

Test [11] concerns catalytic mouse anti-RT3 scFv clone 83. Described as above. The test is classed as biochemical. The method, then:
as §3, §4
Assay of IMAC or HIC purified scFv from clone 83 was done in a similar manner as described for clone 18 with the following exceptions. Substrate was buffered in 25 mM HEPES, pH 7.0, 140 mM NaCl and 0.01% NaN3. Due to the lower background hydrolysis of RT3 substrate at neutral pH, reactions were typically run for 24 hours. A blank was also analyzed and gives a profile similar to the that in FIG. 17B (data not shown).

Turning to `Cc1cc(C)c(CC(=O)O)c(C)c1` [Product A, Mesitylacetic acid, reference compound], the “inhibition of scFv binding to RT3-BSA” value in test [1] and in [2] was “to a lesser extent” each time.
For the molecule `NC(=O)Cc1ccc(O)cc1` [Product B, 4-Hydroxyphenylacetamide], the “inhibition of scFv binding to RT3-BSA” value in [3], in test [4], in test [5], in test [1], in [6] and in test [7] was “No inhibition” in each case. For the same molecule, the “inhibition of scFv binding to RT3-BSA” value in [8], in test [2] and in [9] was “No inhibition” in each case.
Consider `Cc1cc(C)c(CP(=O)(O)Oc2ccc(CC(=O)O)cc2)c(C)c1` [RT3 hapten, 4-(carboxymethyl) phenyl-(2,4,6-trimethylphenyl)-methyl phosphonate], for which the “inhibition of scFv binding to RT3-BSA” value in test [3] was “did not show inhibition”; in [4] it was “did not show inhibition”; in test [5], “inhibited”; in test [1], “inhibited”; in [6], “inhibited”; in [7], “inhibited”. For the same molecule, the “inhibition of scFv binding to RT3-BSA” value in test [8], in test [2] and in [9] was “inhibited” each time. The “catalysis in the presence of RT3 hapten” value in test [10] (IMAC pure scFv, 50 uM RT3 substrate, pH 9.0, 6 hours, 5 μl RT3 hapten added (concentration not given), FIG. 15B) was “completely abrogated”; in [11] (IMAC pure scFv, RT3 substrate, pH 7.0, 24 hours, RT3 hapten added (concentration not given), FIG. 17B) it was “completely abrogated”. Also, the “inhibition of catalytic activity” value in test [10] (secondary screening, pH 9.0, 10 μM antibody, 40 μM substrate, 30 μM hapten) is on record as “significantly inhibited”; in [11] (secondary screening, pH 7.0, 10 μM antibody, 40 μM substrate, 30 μM hapten), “significantly inhibited”.
Take `COP(=O)(O)Cc1c(C)cc(C)cc1C` [RT3A]: the “inhibition of scFv binding to RT3-BSA” value in test [5], in test [1], in test [7], in test [2] and in test [9] was “binding inhibition” in each case.
